Experiment [1] addresses Carbonic anhydrase 13 (Mus musculus, UniProt Q9D6N1).
Experiment [2] has as its target Carbonic anhydrase 5A, mitochondrial (Homo sapiens, UniProt P35218).
The target of experiment [3] is Carbonic anhydrase 12 (Homo sapiens, UniProt O43570).
The target in experiment [4] is Carbonic anhydrase 5B, mitochondrial (Homo sapiens, UniProt Q9Y2D0).
The target of experiment [5] is Carbonic anhydrase 14 (Homo sapiens, UniProt Q9ULX7).
Experiment [6] has as its target Carbonic anhydrase 6 (Homo sapiens, UniProt P23280).
In experiment [7] the target is Carbonic anhydrase 3 (Homo sapiens, UniProt P07451).
Experiment [8] has as its target Carbonic anhydrase 7 (Homo sapiens, UniProt P43166).

Chain of Carbonic anhydrase 13 (Q9D6N1 whole entry): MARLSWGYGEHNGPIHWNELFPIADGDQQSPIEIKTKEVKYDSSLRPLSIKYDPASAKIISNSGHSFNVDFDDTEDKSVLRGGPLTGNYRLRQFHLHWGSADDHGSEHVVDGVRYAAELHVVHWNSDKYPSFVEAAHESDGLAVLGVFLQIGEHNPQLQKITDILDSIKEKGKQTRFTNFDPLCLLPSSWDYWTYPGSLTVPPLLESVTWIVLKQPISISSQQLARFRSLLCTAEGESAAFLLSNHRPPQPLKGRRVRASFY
Chain of Carbonic anhydrase 12 (O43570 whole entry): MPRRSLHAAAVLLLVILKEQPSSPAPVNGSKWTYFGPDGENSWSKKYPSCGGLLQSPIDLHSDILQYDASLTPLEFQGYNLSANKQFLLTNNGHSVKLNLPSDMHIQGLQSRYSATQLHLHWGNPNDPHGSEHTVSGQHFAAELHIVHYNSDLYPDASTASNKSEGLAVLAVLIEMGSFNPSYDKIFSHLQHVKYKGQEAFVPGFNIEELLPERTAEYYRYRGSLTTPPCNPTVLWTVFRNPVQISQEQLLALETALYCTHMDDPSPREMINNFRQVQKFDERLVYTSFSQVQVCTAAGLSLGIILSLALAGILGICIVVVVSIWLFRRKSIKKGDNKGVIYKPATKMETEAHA
Chain of Carbonic anhydrase 5B, mitochondrial (Q9Y2D0 whole entry): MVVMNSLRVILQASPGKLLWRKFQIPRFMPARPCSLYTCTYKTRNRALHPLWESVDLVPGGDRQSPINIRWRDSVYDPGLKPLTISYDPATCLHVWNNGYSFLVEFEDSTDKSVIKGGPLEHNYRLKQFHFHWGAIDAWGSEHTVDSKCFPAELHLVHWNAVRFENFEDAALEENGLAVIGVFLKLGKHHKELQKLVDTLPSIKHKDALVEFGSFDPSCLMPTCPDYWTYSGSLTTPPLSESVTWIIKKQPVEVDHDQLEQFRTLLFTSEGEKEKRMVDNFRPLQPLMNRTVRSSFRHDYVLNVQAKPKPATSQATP
Chain of Carbonic anhydrase 6 (P23280 whole entry): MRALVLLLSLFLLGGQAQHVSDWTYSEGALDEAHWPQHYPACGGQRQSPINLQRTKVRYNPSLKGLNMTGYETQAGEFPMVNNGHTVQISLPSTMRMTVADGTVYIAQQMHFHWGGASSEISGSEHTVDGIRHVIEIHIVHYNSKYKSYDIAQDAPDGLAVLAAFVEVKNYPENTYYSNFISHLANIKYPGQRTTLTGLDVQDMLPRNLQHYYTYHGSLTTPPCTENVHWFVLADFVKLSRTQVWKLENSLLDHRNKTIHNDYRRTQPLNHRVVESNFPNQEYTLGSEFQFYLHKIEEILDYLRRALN
Chain of Carbonic anhydrase 5A, mitochondrial (P35218 whole entry): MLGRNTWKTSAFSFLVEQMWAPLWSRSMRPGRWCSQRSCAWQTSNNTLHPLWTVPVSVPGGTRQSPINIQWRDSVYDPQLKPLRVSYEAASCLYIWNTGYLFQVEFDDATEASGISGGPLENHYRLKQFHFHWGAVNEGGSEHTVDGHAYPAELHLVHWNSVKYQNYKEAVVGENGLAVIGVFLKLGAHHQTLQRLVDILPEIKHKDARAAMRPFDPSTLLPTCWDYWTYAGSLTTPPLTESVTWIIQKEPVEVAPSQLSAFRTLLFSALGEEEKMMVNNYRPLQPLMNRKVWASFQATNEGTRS
Chain of Carbonic anhydrase 14 (Q9ULX7 whole entry): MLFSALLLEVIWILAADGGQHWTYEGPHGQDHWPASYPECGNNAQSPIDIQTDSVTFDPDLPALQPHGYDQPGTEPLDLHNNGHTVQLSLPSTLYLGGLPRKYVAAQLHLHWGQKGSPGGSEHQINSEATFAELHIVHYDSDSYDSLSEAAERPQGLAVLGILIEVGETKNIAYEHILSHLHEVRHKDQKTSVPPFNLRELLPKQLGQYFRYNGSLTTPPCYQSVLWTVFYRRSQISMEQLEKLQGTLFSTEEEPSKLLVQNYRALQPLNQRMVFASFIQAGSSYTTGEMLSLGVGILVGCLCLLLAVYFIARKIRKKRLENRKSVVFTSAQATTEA
Chain of Carbonic anhydrase 3 (P07451 whole entry): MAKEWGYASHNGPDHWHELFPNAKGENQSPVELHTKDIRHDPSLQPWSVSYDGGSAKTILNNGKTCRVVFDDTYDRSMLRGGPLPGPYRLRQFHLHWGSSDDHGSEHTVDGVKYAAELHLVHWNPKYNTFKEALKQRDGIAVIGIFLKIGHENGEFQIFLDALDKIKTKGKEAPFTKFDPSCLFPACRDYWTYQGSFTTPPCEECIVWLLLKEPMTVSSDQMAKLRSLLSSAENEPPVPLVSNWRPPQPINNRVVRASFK
Chain of Carbonic anhydrase 7 (P43166 whole entry): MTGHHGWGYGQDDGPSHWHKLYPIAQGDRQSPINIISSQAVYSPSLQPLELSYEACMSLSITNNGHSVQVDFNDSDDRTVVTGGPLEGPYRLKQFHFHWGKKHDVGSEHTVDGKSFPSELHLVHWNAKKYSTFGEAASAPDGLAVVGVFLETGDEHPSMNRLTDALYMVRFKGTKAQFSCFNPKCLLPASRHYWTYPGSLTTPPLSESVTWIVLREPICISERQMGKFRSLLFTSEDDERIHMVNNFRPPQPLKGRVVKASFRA

With `NS(=O)(=O)OCCCCCCCCCCOS(N)(=O)=O`, the Ki in experiment [1] is 960 nM.

For `NS(=O)(=O)OCCCCCCCCOS(N)(=O)=O`, the inhibition constant (Ki) in experiment [1] was 569 nM; in experiment [2] it was 1200 nM; in experiment [3] it was 7.9 nM; in experiment [4], 1460 nM; in experiment [5], 605 nM; in experiment [6] it was 1020 nM. In experiment [7], this compound registered a Ki of 1130 nM.

In experiment [1], `CCCCCCCCCCOS(N)(=O)=O` [DECYL SULFAMATE] had a Ki of 956 nM.

Consider `CCCCCCCCOS(N)(=O)=O` [OCTYL SULFAMATE], for which the inhibition constant (Ki) in experiment [1] is 1130 nM; in experiment [8], 76.6 nM; in experiment [2], 1250 nM; in experiment [3], 7 nM; in experiment [4], 624 nM; in experiment [5], 390 nM. For the same compound, the Ki worked out at 795 nM in experiment [6] and 9100 nM in experiment [7].

For orientation: Ki means the dissociation constant of the complex between target and ligand, obtained from inhibition or displacement.

These data come from ChEMBL document CHEMBL1155218, “Carbonic anhydrase inhibitors. Comparison of aliphatic sulfamate/bis-sulfamate adducts with isozymes II and IX as a platform for designing tight-binding, more isoform-selective inhibitors” (J Med Chem, 2009).
